The numbers were not newly measured in US20060062074A1, “Method for intracellular modifications within living cells using pulsed electric fields” (priority 2001, published 2006), which cites them from elsewhere.

The data set has as its system a variety of cell lines. Conditions: 0.0075% Triton X-100; positive control; literature (Borner et al. 1994).

On to Triton X-100, for which the induction of apoptosis entry is “induce apoptosis”.
